Source: US7595401B2, “Therapeutic compounds and their use in cancer” (Myriad Pharmaceuticals, Inc., priority 2006, dated 2009)

Target: purified human Hsp90
Assay: Binding Assay: fluorescence polarization with BODIPY-labeled geldanamycin
Details: BODIPY-GM 10 nM, Hsp90 30 nM
Procedure, shortened: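 Compounds in 2% DMSO final compete with 10 nM BODIPY-GM for 30 nM purified human Hsp90, incubated overnight at room temperature in pH 7.3 HEPES buffer containing Na2MoO4 and DTT. Polarization (mP, ex/em 485/530) normalized to DMSO gives percent inhibition; autofluorescence-confounded data excluded.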

Row | IC50 [µM] | % Inhibition at 5 μM Compound Concentration [%] | SMILES
1 | > 5 | – | COc1ccc([N+](=O)[O-])cc1Sc1nc2c(N)ncnc2n1CCC1CCN(C=O)CC1 [Example 536, 4-(2-{6-Amino-8-[(2-methoxy-5-nitrophenyl)thio]-9 H-purin-9-yl}ethyl)piperidine-1-carbaldehyde]
2 | > 5 | – | COc1ccc([N+](=O)[O-])cc1Sc1nc2c(N)ncn(CCC3CCN(C=O)CC3)c-2n1 [Example 537, 4-(2-{6-Amino-8-[(2-methoxy-5-nitrophenyl)thio]-3 H-purin-3-yl}ethyl)piperidine-1-carbaldehyde]
3 | 1.6 | – | COc1ccnc(Sc2nc3c(N)ncnc3n2CCC2CCN(C=O)CC2)c1 [Example 538, 4-(2-{6-Amino-8-[(4-methoxypyridin-2-yl)thio]-9 H-purin-9-yl}ethyl)piperidine-1-carbaldehyde]
4 | > 5 | – | Nc1ncnc2c1nc(Sc1ccc3occc3c1)n2CCC1CCN(C=O)CC1 [Example 539, 4-{2-[6-Amino-8-(1-benzofuran-5-ylthio)-9 H-purin-9-yl]ethyl}piperidine-1-carbaldehyde]
5 | > 5 | – | COc1cc(Sc2nc3c(N)ncnc3n2CCC2CCN(C=O)CC2)cc(OC)c1OC [Example 540, 4-(2-{6-Amino-8-[(3,4,5-trimethoxyphenyl)thio]-9 H-purin-9-yl}ethyl)piperidine-1-carbaldehyde]
6 | – | 4.00 | COc1cc(Sc2nc3c(N)nc[n+](CCC4CCN(C=O)CC4)c3[nH]2)cc(OC)c1OC [Example 541, 4-(2-{6-Amino-8-[(3,4,5-trimethoxyphenyl)thio]-3 H-purin-3-yl}ethyl)piperidine-1-carbaldehyde]
7 | > 5 | – | COC(=O)c1ccnc(Sc2nc3c(N)ncnc3n2CCC2CCN(C=O)CC2)c1 [Example 542, Methyl 2-({6-amino-9-[2-(1-formylpiperidin-4-yl)ethyl]-9 H-purin-8-yl}thio)isonicotinate]
8 | – | 0.00 | COC(=O)c1ccnc(Sc2nc3c(N)ncn(CCC4CCN(C=O)CC4)c-3n2)c1 [Example 543, Methyl 2-({6-amino-3-[2-(1-formylpiperidin-4-yl)ethyl]-3 H-purin-8-yl}thio)isonicotinate]
9 | 1.4 | – | COc1cc(Sc2nc3c(N)ncnc3n2CCC2CCN(C=O)CC2)ncn1 [Example 544, 4-(2-{6-Amino-8-[(6-methoxypyrimidin-4-yl)thio]-9 H-purin-9-yl}ethyl)piperidine-1-carbaldehyde]
10 | 0.05 | – | Nc1ncnc2c1nc(Sc1cc3c(cc1Br)OCCO3)n2CCC1CCN(C=O)CC1 [Example 545, 4-(2-{6-Amino-8-[(7-bromo-2,3-dihydro-1,4-benzodioxin-6-yl)thio]-9 H-purin-9-yl}ethyl)piperidine-1-carbaldehyde]
11 | > 5 | – | Cc1ccsc1Sc1nc2c(N)ncnc2n1CCC1CCN(C=O)CC1 [Example 546, 4-(2-{6-Amino-8-[(3-methyl-2-thienyl)thio]-9 H-purin-9-yl}ethyl)piperidine-1-carbaldehyde]
12 | – | 12.00 | Cc1ccsc1Sc1nc2c(N)ncn(CCC3CCN(C=O)CC3)c-2n1 [Example 547, 4-(2-{6-Amino-8-[(3-methyl-2-thienyl)thio]-3 H-purin-3-yl}ethyl)piperidine-1-carbaldehyde]
13 | > 5 | – | CC(=O)Nc1ccc(Sc2nc3c(N)ncnc3n2CCC2CCN(C=O)CC2)c(Cl)c1 [Example 548, N-[4-({6-Amino-9-[2-(1-formylpiperidin-4-yl)ethyl]-9 H-purin-8-yl}thio)-3-chlorophenyl]acetamide]
14 | – | 11.00 | CC(=O)Nc1ccc(Sc2nc3c(N)ncn(CCC4CCN(C=O)CC4)c-3n2)c(Cl)c1 [Example 549, N-[4-({6-Amino-3-[2-(1-formylpiperidin-4-yl)ethyl]-3 H-purin-8-yl}thio)-3-chlorophenyl]acetamide]
15 | > 5 | – | Nc1ncnc2c1nc(Sc1ncccc1Br)n2CCC1CCN(C=O)CC1 [Example 550, 4-(2-{6-Amino-8-[(3-bromopyridin-2-yl)thio]-9 H-purin-9-yl}ethyl)piperidine-1-carbaldehyde]
16 | – | 0.00 | Nc1ncn(CCC2CCN(C=O)CC2)c2nc(Sc3ncccc3Br)nc1-2 [Example 551, 4-(2-{6-Amino-8-[(3-bromopyridin-2-yl)thio]-3 H-purin-3-yl}ethyl)piperidine-1-carbaldehyde]
17 | > 5 | – | Nc1ncnc2c1nc(Sc1cc(OCc3ccccc3)c(OCc3ccccc3)cc1Br)n2CCC1CCN(C=O)CC1 [Example 553, 4-[2-(6-Amino-8-{[4,5-bis (benzyloxy)-2-bromophenyl]thio}-9 H-purin-9-yl)ethyl]piperidine-1-carbaldehyde]
18 | – | 0.00 | Nc1ncn(CCC2CCN(C=O)CC2)c2nc(Sc3cc(OCc4ccccc4)c(OCc4ccccc4)cc3Br)nc1-2 [Example 554, 4-[2-(6-Amino-8-{[4,5-bis (benzyloxy)-2-bromophenyl]thio}-3 H-purin-3-yl)ethyl]piperidine-1-carbaldehyde]

Row | IC50 [µM] | % Inhibition at 5 μM Compound Concentration [%] | SMILES
19 | 0.7 | – | Nc1ncnc2c1nc(Sc1ccc3c(c1)CCC3=O)n2CCC1CCN(C=O)CC1 [Example 555, 4-(2-{6-Amino-8-[(1-oxo-2,3-dihydro-1 H-inden-5-yl)thio]-9 H-purin-9-yl}ethyl)piperidine-1-carbaldehyde]
20 | 2 | – | COc1c(Sc2nc3c(N)ncnc3n2CCC2CCN(C=O)CC2)cc(C)c2c1CCC2 [Example 556, 4-(2-{6-Amino-8-[(4-methoxy-7-methyl-2,3-dihydro-1 H-inden-5-yl)thio]-9 H-purin-9-yl}ethyl)piperidine-1-carbaldehyde]
21 | 1.5 | – | COc1ccc(OC)c(Sc2nc3c(N)ncnc3n2CCC2CCN(C(C)=O)CC2)c1 [Example 557, 9-[2-(1-Acetylpiperidin-4-yl)ethyl]-8-[(2,5-dimethoxyphenyl)thio]-9 H-purin-6-amine]
22 | > 5 | – | COc1cc(Sc2nc3c(N)ncnc3n2CCC2CCN(C=O)CC2)c(OC)cc1Cl [Example 558, 4-(2-{6-Amino-8-[(4-chloro-2,5-dimethoxyphenyl)thio]-9 H-purin-9-yl}ethyl)piperidine-1-carbaldehyde]
23 | > 5 | – | COc1cc(F)c(Sc2nc3c(N)ncnc3n2CCC2CCN(C(C)=O)CC2)cc1F [Example 559, 9-[2-(1-Acetylpiperidin-4-yl)ethyl]-8-[(2,5-difluoro-4-methoxyphenyl)thio]-9 H-purin-6-amine]
24 | > 5 | – | CC(=O)N1CCC(CCn2c(Sc3cc(F)c(F)cc3Br)nc3c(N)ncnc32)CC1 [Example 560, 9-[2-(1-Acetylpiperidin-4-yl)ethyl]-8-[(2-bromo-4,5-difluorophenyl)thio]-9 H-purin-6-amine]
25 | > 5 | – | CC(=O)N1CCC(CCn2c(Sc3ccc4c(c3)OCO4)nc3c(N)ncnc32)CC1 [Example 561, 9-[2-(1-Acetylpiperidin-4-yl)ethyl]-8-(1,3-benzodioxol-5-ylthio)-9 H-purin-6-amine]
26 | > 5 | – | COc1cc(Sc2nc3c(N)ncnc3n2CCC2CCN(C(C)=O)CC2)c(OC)cc1Cl [Example 563, 9-[2-(1-Acetylpiperidin-4-yl)ethyl]-8-[(4-cloro-2,5-dimethoxyphenyl)thio]-9 H-purin-6-amine]
27 | > 5 | – | COc1cc(Br)c(Sc2nc3c(N)ncnc3n2CCC2CCN(C(C)=O)CC2)cc1OC [Example 565, 9-[2-(1-Acetylpiperidin-4-yl)ethyl]-8-[(2-bromo-4,5-dimethoxyphenyl)thio]-9 H-purin-6-]
28 | – | 1.00 | COc1cc(Br)c(Sc2nc3c(N)ncn(CCC4CCN(C(C)=O)CC4)c-3n2)cc1OC [Example 566, 3-[2-(1-Acetylpiperidin-4-yl)ethyl]-8-[(2-bromo-4,5-dimethoxyphenyl)thio]-3 H-purin-6-amine]
29 | > 5 | – | COc1ccc(Sc2nc3c(N)ncnc3n2CCC2CCN(C(C)=O)CC2)cc1F [Example 567, 9-[2-(1-Acetylpiperidin-4-yl)ethyl]-8-[(3-fluoro-4-methoxyphenyl)thio]-9 H-purin-6-amine]
30 | – | 0.00 | COc1ccc(Sc2nc3c(N)ncn(CCC4CCN(C(C)=O)CC4)c-3n2)cc1F [Example 568, 3-[2-(1-Acetylpiperidin-4-yl)ethyl]-8-[(3-fluoro-4-methoxyphenyl)thio]-3 H-purin-6-amine]
31 | > 5 | – | COc1c(F)cc(Sc2nc3c(N)ncnc3n2CCC2CCN(C(C)=O)CC2)cc1Cl [Example 569, 9-[2-(1-Acetylpiperidin-4-yl)ethyl]-8-[(3-chloro-5-fluoro-4-methoxyphenyl)thio]-9 H-purin-6-amine]
32 | – | 0.00 | COc1c(F)cc(Sc2nc3c(N)ncn(CCC4CCN(C(C)=O)CC4)c-3n2)cc1Cl [Example 570, 3-[2-(1-Acetylpiperidin-4-yl)ethyl]-8-[(3-chloro-5-fluoro-4-methoxyphenyl)thio]-3 H-purin-6-amine]
33 | > 5 | – | CC(=O)N1CCC(CCn2c(Sc3ccc4c(c3)OC(F)(F)O4)nc3c(N)ncnc32)CC1 [Example 571, 9-[2-(1-Acetylpiperidin-4-yl)ethyl]-8-[(2,2-difluoro-1,3-benzodioxol-5-yl)thio]-9 H-purin-6-amine]
34 | – | 0.00 | CC(=O)N1CCC(CCn2cnc(N)c3nc(Sc4ccc5c(c4)OC(F)(F)O5)nc2-3)CC1 [Example 572, 3-[2-(1-Acetylpiperidin-4-yl)ethyl]-8-[(2,2-difluoro-1,3-benzodioxol-5-yl)thio]-3 H-purin-6-amine]
35 | 1.4 | – | Nc1ncnc2c1nc(Sc1cc3c(cc1Br)OCO3)n2CCC1CCN(Cc2ccc(Cl)cc2)CC1 [Example 573, 8-[(6-Bromo-1,3-benzodioxol-5-yl)thio]-9-{2-[1-(4-chlorobenzyl)piperidin-4-yl]ethyl}-9 H-purin-6-amine]
36 | 1.8 | – | Nc1ncnc2c1nc(Sc1cc3c(cc1Br)OCO3)n2CCNc1cccc2cccnc12 [Example 574, N-(2-{6-Amino-8-[(6-bromo-1,3-benzodioxol-5-yl)thio]-9 H-purin-9-yl}ethyl)quinolin-8-amine]
